The values below come from patent US10085981B2, “Protein acyl transferase inhibitors and methods of treatment” (UNIVERSITY OF SOUTH FLORIDA, priority 2015, dated 2018).

pEC50, pKi: −log10 of the molar value. Where two headings read alike, the source gives them in different places.

The test system of experiment [1] is S. cerevisiae RJY1942 (palmitoylation sensitive). The experiment in a line: Growth inhibition assay, palmitoylation-sensitive strain. In kind it is cell-based. The settings on record: for selectivity: EC50 in the control strain RJY1941 as compared to the sensitive strain RJY1942: growth curves, 24 hrs. Here is the method:
The in vivo effect of the inhibitors on Ras2 palmitoylation was investigated by comparing the growth of S. cerevisiae strains previously described for our complementation assay. Briefly, the cells contain a defective allele of RAS2 that is balanced by an episomal copy of RAS2 linked to URA3. Under these conditions, the yeast strain cannot grow unless the episomal copy of RAS2 is palmitoylated. Varying concentrations of the inhibitors were added to 200 μl volumes of the yeast cells at an OD600 between 0.8 and 1.2 in a 96-well plate format. The OD600 was observed every 30 mins for 24 hrs and EC50 values were determined by graphing rate of growth against concentration of inhibitor for each inhibitor.
To examine the inhibition of Ras palmitoylation in vivo, we utilized two strains of S. cerevisiae. The yeast strain RJY1942 (palmitoylation sensitive) requires Ras2 palmitoylation for viability. The isogenic wild type control yeast strain (RJY1941) is not dependent on Ras2 palmitoylation for viability. The growth of both strains was monitored in the presence (or absence) of our inhibitors every 30 mins for 24 hrs. EC50 values were calculated using GraphPad Prism® (La Jolla, Calif.) to extrapolate the effective concentration of each inhibitor that caused a 50% reduction in growth (FIG. 9). […] Compounds 13, 25, and 2-BP show a modest selectivity for the sensitive strain, RJY1942, over the control strain, RJY1941, resulting in a 2-fold greater EC50 value in the control strain as compared to the sensitive strain (values listed in FIG. 5, right panel). […] Additional work is needed to determine the mechanism of growth inhibition and selectivity of these compounds.

Experiment [2] addresses T1, Erf2 (Saccharomyces cerevisiae, UniProt Q06551).
T1 construct: made in house; host or cells: Saccharomyces cerevisiae strain RJY1842 (erf4Δ/erf4Δ), galactose-induced pESC(-Leu) vector, Ni-NTA purified
The experiment in a line: BODIPY-C12:0 gel-based assay of steady-state Erf2 autopalmitoylation. In kind it is biochemical, S. cerevisiae. As to the method: BODIPY®-C12:0-CoA (40 μM final, unless specified otherwise) was added to a 50 μl reaction containing approximately 0.5 μg enzyme (6×HIS-Erf2-(FLAG)-Erf4) and 100 μM inhibitors in 5% DMF in 50 mM sodium phosphate buffer, pH 6.8. The reactions were incubated 10 mins with inhibitor, and then the reaction was initiated with the addition of BODIPY®-C12:0-CoA, and incubated 15 mins at 30° C. The reaction was terminated by the addition of 5× non-reducing protein loading buffer. Each reaction was heated at 65° C. for 3 mins and then subjected to SDS-PAGE (12%). The gel was rinsed three times in ddH2O and visualized on the Typhoon 9410 Variable Mode Imager (GE Healthcare, Piscataway, N.J.) for BODIPY® fluorescence (ex. 488 nm/em. 532 nm) to visualize co-migration of the BODIPY® signal with 6×HIS-Erf2-(FLAG)-Erf4. The amount of 6×HIS-Erf2-(FLAG)-Erf4 was determined empirically using SDS-PAGE analysis under reducing conditions against a standard curve of bovine serum albumin.
To determine if the ten compounds identified in this study were inhibiting autopalmitoylation, and not targeting hydrolysis of the enzyme, steady-state autopalmitoylation was evaluated at 100 μM of each compound compared to 100 μM 2-BP and DMF (vehicle) alone. […] From these screens we observed a decrease in BODIPY® fluorescence at the apparent molecular weight of Erf2. […]

In experiment [3] the target is T1, Erf2. The experiment in a line: Fluorescence-based coupled PAT assay of the rate of Erf2 autopalmitoylation. In kind it is biochemical, S. cerevisiae. The settings on record: for mode of inhibition of Erf2 autopalmitoylation: inhibitor titrations varying inhibitor and palmitoyl-CoA. As to the method:
The HTS application of protein palmitoylation was recently described, but was adjusted for this study. The production of NADH was monitored with a Biotek Mx fluorimeter (Biotek, Winooski, Vt.) using 340 nm excitation/465 nm emission. The 50 μl reaction contained 2 mM 2-Oxoglutarate (α-ketoglutamic acid), 0.25 mM NAD+, 0.2 mM Thiamine Pyrophosphate, 0.5 μg of purified 6×HIS-Erf2-(FLAG)-Erf4, 1 mM EDTA, 1 mM dithiothreitol, 8 mU 2-oxogluarate dehydrogenase (α-ketoglutarate dehydrogenase), 50 mM sodium phosphate, pH 6.8, and 0 100 μM inhibitor in 5% DMF. The reaction was initiated by the addition of 40 μM palmitoyl-CoA and monitored for 30 mins at 30° C. The first 10 mins of the reaction was analyzed to determine the initial rates of CoASH release. The PAT specific activity was determined from a standard curve of NADH production with different CoASH amounts. In these reactions, CoASH was added to the standard PAT reaction mixture (without Erf2/Erf4 complex or palmitoyl-CoA) and the reaction was allowed to proceed to equilibrium before fluorescence was measured.
The identification of palmitoylation inhibitors has been hampered by the lack of assays amenable to high throughput screening applications. Previously, we validated an assay that monitors the rate of autopalmitoylation by measuring the production of CoASH generated from the […] of palmitoyl-CoA [13]. This assay has a Z′-value of 0.87 [13]. […] This assay can be used to monitor autopalmitoylation in real time or as an end point assay, thus providing flexibility when screening small molecule compounds. Compounds with internal fluorescence or that affect the assay components are easily identified and excluded, allowing for the rapid identification of the compounds that inhibit or activate PAT autopalmitoylation activity. […]

Experiment [4] addresses T1, Erf2. The settings on record: previously demonstrated [13]; cited from earlier work.
The test system of experiment [5] is S. cerevisiae RJY1942 (sensitized). The experiment in a line: Yeast cell spot assay, sensitized strain. In kind it is cell-based. The settings on record: for inhibition at 5 µM: Saccharomyces cerevisiae. Here is the method: (§1) Following 24 hrs incubation with varying concentrations of the inhibitors in 1% DMF, S. cerevisiae strains RJY1941 and RJY1942 were then diluted 1/100, and spotted onto SC-Ura plates with 2% glucose. Cytotoxicity data was obtained by detecting the colony growth, following 48 hrs incubation at 30° C., with white light detection on the Bio-Rad Molecular Imager® ChemiDoc™ XRS+ (Hercules, Calif.) and performing densitometry with Bio-Rad ImageLab™ Software (Hercules, Calif.). Triplicate reactions were plated in triplicate. Values were normalized to vehicle control (1% DMF) for each plate, and then the averages of each reaction were compared for statistical analysis.
(§2) We next compared the ability of either strain to grow following the 24 hrs incubation with Compounds 13, 14, or 25. Serial dilutions of RJY1941 and RJY1942 were spotted on agar plates following incubation for 24 hrs with varying inhibitor concentrations. […] Conversely, compound 13 inhibited (100%) the growth of RJY1942 (sensitized) at 5 μM.

Experiment [6] relates to S. cerevisiae RJY1941 (control). The experiment in a line: Yeast cell spot assay, control strain. In kind it is cell-based. As to the method:
as §1, §2

Setting [7] is: 20 μM, spotted after 24 hrs incubation.
The mark [8] stands for this setting: concentrations lower than 20 μM (2.5, 5, 10 μM).
Setting [9] is: spotted after 24 hrs incubation, read-out: inhibition of growth of RJY1942 (sensitized).

T1 sequence (Q06551 whole entry): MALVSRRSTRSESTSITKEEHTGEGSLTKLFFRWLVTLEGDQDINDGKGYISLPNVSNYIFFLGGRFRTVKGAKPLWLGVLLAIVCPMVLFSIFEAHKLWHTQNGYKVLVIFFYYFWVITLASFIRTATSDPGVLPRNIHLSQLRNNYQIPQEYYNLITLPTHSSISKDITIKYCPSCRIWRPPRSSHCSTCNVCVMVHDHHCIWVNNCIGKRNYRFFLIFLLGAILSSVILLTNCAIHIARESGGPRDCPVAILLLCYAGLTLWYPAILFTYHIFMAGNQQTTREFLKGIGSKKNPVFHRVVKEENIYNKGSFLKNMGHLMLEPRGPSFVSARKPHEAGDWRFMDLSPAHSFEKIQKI

On to `CCCCCCCCCCCCCCC(Br)C(=O)O` (stereo not drawn) [Compound 2-BP, 2-bromopalmitic acid, reference compound], for which, in experiment [1] (Saccharomyces cerevisiae, read-out: EC50 (50% reduction in growth)), the pEC50 – broadly, the negative decadic logarithm of the EC50, by convention in mol/L – was 4.90. In addition, the “selectivity: EC50 in the control strain RJY1941 as compared to the sensitive strain RJY1942” value (“selectivity: EC50” for short) in experiment [1] stood at 2 fold. Further, the pKi (usually −log10 of the Ki, conventionally taken in molar units) in experiment [2] (dose response curves of steady-state autopalmitoylation, read-out: steady-state autopalmitoylation inhibition constant (Ki), gel-based assay) is 4.10; in experiment [3], 4.23. For the same molecule, the “VMAX for the Palmitoyl-CoA substrate” value amounted to 160 ± 5 µM in experiment [3] (inhibitor at 25 μM), 126 ± 23 µM in experiment [3] (inhibitor at 50 μM) and 51 ± 8 µM in experiment [3] (inhibitor at 100 μM). The “mode of inhibition of Erf2 autopalmitoylation” value in experiment [4] was “uncompetitive or mixed inhibitor”. In addition, in experiment [5] (2.5-20 μM on solid yeast medium, strain not specified), the “inhibition of yeast growth in spot assay” value was “did not inhibit”.

Take `CC(C)Cc1ccc(C(C)CN2CCNC[C@@H]2CCCCN2CCN(CC(C)c3ccc(CC(C)C)cc3)[C@@H](Cc3ccc(O)cc3)C2)cc1` (stereo partly drawn) [Compound 13, 4-(((2S)-1-(2-(4-isobutylphenyl)propyl)-4-(4-((2S)-1-(2-(4-isobutylphenyl)propyl)piperazin-2-yl)butyl)piperazin-2-yl)methyl)phenol]: the “selectivity: EC50” value in experiment [1] turned out to be 2 fold. Also, the “mode of inhibition of steady-state Erf2 autopalmitoylation” value in experiment [2] (25, 50, 100 μM compound at varying BODIPY-C12-CoA) was “acting competitively”. For the same molecule, the “VMAX for the Palmitoyl-CoA substrate” value was found to be 243 ± 20 µM in experiment [3] (inhibitor at 25 μM), 354 ± 26 µM in experiment [3] (inhibitor at 50 μM) and 631 ± 94 µM in experiment [3] (inhibitor at 100 μM). Further, in experiment [3], the “mode of inhibition of Erf2 autopalmitoylation” value is “Competitively”. Moreover, the “inhibition of growth of RJY1941 (control)” value (from here on “inhibition … (control)”) is “completely inhibited” in experiment [6] (setting [7]) and “no detectable effect” in experiment [6] (setting [8]). Besides, the inhibition (as a rule, how much of the control response was suppressed) at 5 µM in experiment [5] (setting [9]) was determined as 100%.

Take `CC(C)Cc1ccc(C(C)CN2CCNC[C@@H]2CCCCN2CCN(CCc3cc(C(F)(F)F)cc(C(F)(F)F)c3)[C@@H](Cc3ccc(O)cc3)C2)cc1` (stereo partly drawn) [Compound 14, 4-(((2S)-1-(3,5-bis(trifluoromethyl)phenethyl)-4-(4-((2S)-1-(2-(4-isobutylphenyl)propyl)piperazin-2-yl)butyl)piperazin-2-yl)methyl)phenol]: the “inhibition … (control)” value in experiment [6] (setting [7]) is reported as “completely inhibited”; in experiment [6] (setting [8]), “no detectable effect”. The inhibition at 5 µM in experiment [5] (setting [9]) is around 10%. In addition, in experiment [5] (concentrations higher than 5 μM), the “inhibition of growth of RJY1942 (sensitized)” value is listed as “total inhibition”.

In the case of `CC(C)Cc1ccc(C(C)CN2CCN(CCCC[C@H]3CNCCN3CCc3cc(C(F)(F)F)cc(C(F)(F)F)c3)C[C@@H]2Cc2ccc(O)cc2)cc1` (stereo partly drawn) [Compound 25, 4-(((2S)-4-(4-((S)-1-(3,5-bis(trifluoromethyl)phenethyl)piperazin-2-yl)butyl)-1-(2-(4-isobutylphenyl)propyl)piperazin-2-yl)methyl)phenol], the “selectivity: EC50” value in experiment [1] came out at 2 fold. The “VMAX for the Palmitoyl-CoA substrate” value in experiment [3] (inhibitor at 25 μM) turned out to be 307 ± 30 µM; in experiment [3] (inhibitor at 50 μM) it was 344 ± 34 µM; in experiment [3] (inhibitor at 100 μM), 542 ± 60 µM. The “mode of inhibition of Erf2 autopalmitoylation” value in experiment [3] is listed as “Competitively”. In addition, the “inhibition … (control)” value in experiment [6] (setting [7]) was “completely inhibited”; in experiment [6] (setting [8]), “no detectable effect”. For the same molecule, the inhibition at 5 µM in experiment [5] (read-out: inhibition of growth of RJY1942 (sensitized), relative to that observed for compound 13) was around 90%.
